In patent publication US7582773B2, “Substituted phenyl indoles” (Wyeth, priority 2003, dated 2009):

How the values were obtained:
[1] = biological target: T1, recombinant human plasminogen activator inhibitor-1 (PAI-1) (Homo sapiens, UniProt P05121); assay: Screening for PAI-1 inhibition (chromogenic tPA activity assay); type: biochemical
T1 construct: purchased Molecular Innovations, Royal Oak, Mich
Method: Screening for PAI-1 inhibition. Test compounds are dissolved in DMSO at a final concentration of 10 mM, then diluted 100× in physiologic buffer. The inhibitory assay is initiated by the addition of the test compound (1-100 μM final concentration, maximum DMSO concentration of 0.2%) in a pH 6.6 buffer containing 140 nM recombinant human plasminogen activator inhibitor-1 (PAI-1; Molecular Innovations, Royal Oak, Mich.). Following a 1 hour incubation at room temperature, 70 nM of recombinant human tissue plasminogen activator (tPA) is added, and the combination of the test compound, PAI-1 and tPA is incubated for an additional 30 minutes. Following the second incubation, Spectrozyme-tPA (American Diagnostica, Greenwich, Conn.), a chromogenic substrate for tPA, is added and absorbance read at 405 nm at 0 and 60 minutes. Relative PAI-1 inhibition is equal to the residual tPA activity in the presence of the test compounds and PAI-1. Control treatments include the complete inhibition of tPA by PAI-1 at the molar ratio employed (2:1), and the absence of any effect of the test compound on tPA alone.

[2] = biological target: human PAI-1 (Homo sapiens, UniProt P05121); assay: Assay for determining the IC50 of inhibition of PAI-1 (active PAI-1 bound to tPA-coated plate); type: biochemical; conditions: test compound 1-50 μM, pH 7.5
Sequence of human PAI-1 (P05121 24-402): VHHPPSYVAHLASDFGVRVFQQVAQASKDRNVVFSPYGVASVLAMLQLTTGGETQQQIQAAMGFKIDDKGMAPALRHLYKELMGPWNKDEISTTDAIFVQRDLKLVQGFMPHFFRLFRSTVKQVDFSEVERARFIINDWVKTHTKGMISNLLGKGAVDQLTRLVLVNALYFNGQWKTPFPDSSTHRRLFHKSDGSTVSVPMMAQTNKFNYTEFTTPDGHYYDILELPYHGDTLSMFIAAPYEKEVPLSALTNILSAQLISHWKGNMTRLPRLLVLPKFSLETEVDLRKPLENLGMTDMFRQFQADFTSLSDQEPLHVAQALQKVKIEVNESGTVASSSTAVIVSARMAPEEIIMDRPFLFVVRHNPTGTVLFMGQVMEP
Method: Assay for determining the IC50 of inhibition of PAI-1. This assay is based upon the non-SDS dissociable interaction between tPA and active PAI-1. Assay plates are initially coated with human tPA (10 μg/ml). Test compounds are dissolved in DMSO at 10 mM, then diluted with physiologic buffer (pH 7.5) to a final concentration of 1-50 μM. The test compounds are incubated with human PAI-1 (50 ng/ml) for 15 minutes at room temperature. The tPA-coated plate is washed with a solution of 0.05% Tween 20 and 0.1% BSA, then the plate is blocked with a solution of 3% BSA. An aliquot of the test compound/PAI-1 solution is then added to the tPA-coated plate, incubated at room temperature for 1 hour, and washed. Active PAI-1 bound to the plate is assessed by adding an aliquot of a 1:1000 dilution of the 33B8 monoclonal antibody against human PAI-1, and incubating the plate at room temperature for 1 hour (Molecular Innovations, Royal Oak, Mich.). The plate is again washed, and a solution of goat anti-mouse IgG-alkaline phosphatase conjugate is added at a 1:50,000 dilution in goat serum. The plate is incubated 30 minutes at room temperature, washed, and a solution of alkaline phosphatase substrate is added. The plate is incubated 45 minutes at room temperature, and color development is determined at OD405 nm. The quantitation of active PAI-1 bound to tPA at varying concentrations of the test compound is used to determine the IC50. Results are analyzed using a logarithmic best-fit equation. The assay sensitivity is 5 ng/ml of human PAI-1 as determined from a standard curve ranging from 0-100 ng/ml.

T1 sequence (P05121 24-402): as above

Row | inhibition at 25 µM [1] [%] | melting point [°C] | IC50 [2] [µM] | SMILES
1 | 48 | 179 to 181 |  | Cn1c(-c2ccccc2)c(Cc2ccccc2)c2cc(-c3ccc(OCC(=O)O)cc3)ccc21 [[4-(3-Benzyl-1-methyl-2-phenyl-1H-indol-5-yl)-phenoxy]-acetic acid]
2 | 51 |  |  | c1ccc(Cc2c(-c3ccccc3)n(Cc3ccccc3)c3ccc(-c4ccc(OCc5nnn[nH]5)cc4)cc23)cc1 [1,3-Dibenzyl-2-phenyl-5-[4-(1H-tetrazol-5-ylmethoxy)-phenyl]-1H-indole]
3 |  | 190 to 192 | 47.7 | Cc1c(Cc2ccccc2)c2cc(-c3ccc(OCc4nnn[nH]4)cc3)ccc2n1Cc1ccccc1 [1,3-Dibenzyl-2-methyl-5-[4-(1H-tetrazol-5-ylmethoxy)-phenyl]-1H-indole]
4 |  |  | 32.8 | Cc1c(-c2ccccc2)n(C)c2cccc(-c3ccc(OCc4nnn[nH]4)cc3)c12 [1,3-Dimethyl-2-phenyl-4-[4-(1H-tetrazol-5-ylmethoxy)-phenyl]-1H-indole]
5 |  | 180 to 183 | 25.3 | Cc1c(Cc2ccccc2)c2cc(-c3ccc(OCC(=O)O)cc3)ccc2n1Cc1ccccc1 [[4-(1,3-Dibenzyl-2-methyl-1H-indol-5-yl)-phenoxy]-acetic acid]
6 |  | 82 to 86 | 23.1 | Cc1c(-c2ccccc2)n(Cc2ccccc2)c2cccc(-c3ccc(OCC(=O)O)cc3)c12 [[4-(1-Benzyl-3-methyl-2-phenyl-1H-indol-4-yl)-phenoxy]-acetic acid]
7 |  | 173.5 to 175 | 18.1 | Cc1c(-c2ccccc2)n(Cc2ccccc2)c2ccc(-c3ccc(OCC(=O)O)cc3)cc12 [[4-(1-Benzyl-3-methyl-2-phenyl-1H-indol-5-yl)-phenoxy]-acetic acid]
8 |  |  | 36.9 | Cc1c(-c2ccccc2)n(Cc2ccccc2)c2cc(-c3ccc(OCc4nnn[nH]4)cc3)ccc12 [1-Benzyl-3-methyl-2-phenyl-6-[4-(1H-tetrazol-5-ylmethoxy)-phenyl]-1H-indole]
9 |  | 204 to 207 | 38 | Cc1c(Cc2ccccc2)c2cc(-c3ccc(OCC(=O)O)cc3)ccc2n1C [[4-(3-Benzyl-1,2-dimethyl-1H-indol-5-yl)-phenoxy]-acetic acid]
10 |  |  | 36.4 | CCCCCc1c(-c2ccccc2)n(C)c2ccc(-c3ccc(OCc4nnn[nH]4)cc3)cc12 [1-Methyl-3-pentyl-2-phenyl-5-[4-(1H-tetrazol-5-ylmethoxy)-phenyl]-1H-indole]
11 |  |  | 43.9 | Cc1c(Cc2ccccc2)c2cc(-c3ccc(OCc4nnn[nH]4)cc3)ccc2n1C [3-Benzyl-1,2-dimethyl-5-[4-(1H-tetrazol-5-ylmethoxy)-phenyl]-1H-indole]
12 |  | 165 to 168 | 16.3 | CCCCCc1c(-c2ccccc2)n(Cc2ccccc2)c2ccc(-c3ccc(OCc4nnn[nH]4)cc3)cc12 [1-Benzyl-3-pentyl-2-phenyl-5-[4-(1H-tetrazol-5-ylmethoxy)-phenyl]-1H-indole]
13 | 27 | 202 to 205 |  | Cc1c(-c2ccccc2)n(Cc2ccccc2)c2cc(-c3ccc(OCC(=O)O)cc3)ccc12 [[4-(1-Benzyl-3-methyl-2-phenyl-1H-indol-6-yl)-phenoxy]-acetic acid]
14 | 56 |  |  | Cn1c(-c2ccccc2)c(Cc2ccccc2)c2cc(-c3ccc(OCc4nnn[nH]4)cc3)ccc21 [3-Benzyl-1-methyl-2-phenyl-5-[4-(1H-tetrazol-5-ylmethoxy)-phenyl]-1H-indole]
15 |  |  | 6.1 | Cn1c2c(c3cc(-c4ccc(OCc5nnn[nH]5)cc4)ccc31)CCCC2 [9-Methyl-6-[4-(1H-tetrazol-5-ylmethoxy)-phenyl]-2,3,4,9-tetrahydro-1H-carbazole]
16 |  | 141 to 143 | 15.4 | CCCCCc1c(-c2ccccc2)n(Cc2ccccc2)c2ccc(-c3ccc(OCC(=O)O)cc3)cc12 [[4-(1-Benzyl-3-pentyl-2-phenyl-1H-indol-5-yl)-phenoxy]-acetic acid]
17 |  |  | 10.1 | Cc1c(-c2ccccc2)n(Cc2ccccc2)c2ccc(-c3ccc(OCc4nnn[nH]4)cc3)cc12 [1-Benzyl-3-methyl-2-phenyl-5-[4-(1H-tetrazol-5-ylmethoxy)-phenyl]-1H-indole]
18 | 68 | 146 to 148 |  | CCCCCc1c(-c2ccccc2)n(C)c2ccc(-c3ccc(OCC(=O)O)cc3)cc12 [[4-(1-Methyl-3-pentyl-2-phenyl-1H-indol-5-yl)-phenoxy]-acetic acid]
19 |  | 174 to 177 | 25.7 | Cc1c(-c2ccccc2)n(Cc2ccccc2)c2cccc(-c3ccc(OCc4nnn[nH]4)cc3)c12 [1-Benzyl-3-methyl-2-phenyl-4-[4-(1H-tetrazol-5-ylmethoxy)-phenyl]-1H-indole]
20 |  | 176 to 180 | 35.6 | O=C(O)COc1ccc(-c2ccc3c(c2)c2c(n3Cc3ccccc3)CCCC2)cc1 [[4-(9-Benzyl-6,7,8,9-tetrahydro-5H-carbazol-3-yl)-phenoxy]-acetic acid]
21 |  |  | 16.5 | Cc1c(-c2ccccc2)n(C)c2ccc(-c3ccc(OCc4nnn[nH]4)cc3)cc12 [1,3-Dimethyl-2-phenyl-5-[4-(1H-tetrazol-5-ylmethoxy)-phenyl]-1H-indole]
22 |  | 203 to 206 | 51.5 | Cc1c(C)n(Cc2ccccc2)c2ccc(-c3ccc(OCC(=O)O)cc3)cc12 [[4-(1-Benzyl-2,3-dimethyl-1H-indol-5-yl)-phenoxy]-acetic acid]
23 |  | 177 to 180 | 33.9 | Cc1c(-c2ccccc2)n(C)c2cccc(-c3ccc(OCC(=O)O)cc3)c12 [[4-(1,3-Dimethyl-2-phenyl-1H-indol-4-yl)-phenoxy]-acetic acid]
24 |  |  | 27.5 | c1ccc(Cn2c3c(c4cc(-c5ccc(OCc6nnn[nH]6)cc5)ccc42)CCCC3)cc1 [9-Benzyl-6-[4-(1H-tetrazol-5-ylmethoxy)-phenyl]-2,3,4,9-tetrahydro-1H-carbazole]
25 |  | 153 to 155 | 12.1 | O=C(O)COc1ccc(-c2ccc3c(c2)c(Cc2ccccc2)c(-c2ccccc2)n3Cc2ccccc2)cc1 [[4-(1,3-Dibenzyl-2-phenyl-1H-indol-5-yl)-phenoxy]-acetic acid]
26 |  |  | 28.2 | Cc1c(C)n(Cc2ccccc2)c2ccc(-c3ccc(OCc4nnn[nH]4)cc3)cc12 [1-Benzyl-2,3-dimethyl-5-[4-(1H-tetrazol-5-ylmethoxy)-phenyl]-1H-indole]
